Source: patent US6737383B1, “Herbicidal oxadiazolidines” (priority 1999, dated 2004)

How the values were obtained:
bedstraw = assay: Test B pre/postemergence bedstraw; assay type: in vivo, Galium aparine
How it was run: (§1)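 Herbicidal effect was estimated by eye on a ten-point control scale after plants spent twelve to sixteen days in a greenhouse following soil or foliar treatment. Foliar sprays targeted plants at one to four leaves; all doses were formulated in a non-phytotoxic solvent with surfactant.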

blackgrass = assay: Test B pre/postemergence blackgrass; assay type: in vivo, Alopecurus myosuroides
How it was run: as §1

surinam grass = assay: Test B pre/postemergence surinam grass; assay type: in vivo, Brachiaria decumbens
How it was run: as §1

cocklebur = assay: Test B pre/postemergence cocklebur; assay type: in vivo, Xanthium strumarium
How it was run: as §1

corn = assay: Test B pre/postemergence corn; assay type: in vivo, Zea mays
How it was run: as §1

crabgrass = assay: Test B pre/postemergence crabgrass; assay type: in vivo, Digitaria sanguinalis
How it was run: as §1

giant foxtail = assay: Test B pre/postemergence giant foxtail; assay type: in vivo, Setaria faberii
How it was run: as §1

morningglory = assay: Test B pre/postemergence morningglory; assay type: in vivo, Ipomoea hederacea
How it was run: as §1

pigweed = assay: Test B pre/postemergence pigweed; assay type: in vivo, Amaranthus retroflexus
How it was run: as §1

soybean = assay: Test B pre/postemergence soybean; assay type: in vivo, Glycine max
How it was run: as §1

velvetleaf = assay: Test B pre/postemergence velvetleaf; assay type: in vivo, Abutilon theophrasti; details: for Plant response rating, Velvetleaf: Rate 250 g/ha
How it was run: as §1

wheat = assay: Test B pre/postemergence wheat; assay type: in vivo, Triticum aestivum; details: for Plant response rating, Wheat: Rate 250 g/ha
How it was run: as §1

wild oat = assay: Test B pre/postemergence wild oat; assay type: in vivo, Avena fatua; details: for Plant response rating, Wild oats: Rate 250 g/ha
How it was run: as §1

rice = assay: Test B flood test rice; assay type: in vivo, Oryza sativa
How it was run: (§2)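 Each value is a visual injury score relative to controls, with 10 meaning complete control and 0 no effect. Evaluation took place twelve to sixteen days after the 2-leaf-stage plants were treated and kept in the greenhouse.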

smallflower flatsedge = assay: Test B flood test smallflower flatsedge; assay type: in vivo, Cyperus difformis
How it was run: as §2

bamyardgrass = assay: Test B flood test barnyardgrass; assay type: in vivo, Echinochloa crus-galli
How it was run: as §2

[1] = Preemergence, Rate 62 g/ha, scale 0 to 10 (0 no effect, 10 complete control)
[2] = Preemergence, Rate 125 g/ha, scale 0 to 10 (0 no effect, 10 complete control)
[3] = Preemergence, Rate 250 g/ha, scale of 0 to 10 where 0 is no effect and 10 is complete control
[4] = Preemergence, Rate 500 g/ha, scale 0 to 10 (0 no effect, 10 complete control)
[5] = Rate 500 g/ha, Postemergence, scale 0 to 10, 0 no effect, 10 complete control
[6] = Postemergence, Rate 125 g/ha, scale of 0 to 10 where 0 is no effect and 10 is complete control
[7] = Postemergence, Rate 250 g/ha, scale 0 to 10, 0 no effect, 10 complete control
[8] = Rate 62 g/ha, Postemergence, scale of 0 to 10 where 0 is no effect and 10 is complete control
[9] = Postemergence, Rate 62 g/ha, scale 0 to 10, 0 is no effect, 10 is complete control
[10] = Rate 250 g/ha, Postemergence, scale 0 to 10, 0 is no effect, 10 is complete control
[11] = Preemergence, Rate 125 g/ha, 0 is no effect, 10 is complete control
[12] = Preemergence, scale of 0 to 10 where 0 is no effect and 10 is complete control
[13] = Postemergence, scale 0 to 10, 0 is no effect, 10 is complete control
[14] = Postemergence (flood test species), Rate 125 g/ha, scale of 0 to 10 where 0 is no effect and 10 is complete control
[15] = Rate 62 g/ha, Postemergence section, flood test species, scale of 0 to 10 where 0 is no effect and 10 is complete control
[16] = Rate 250 g/ha, Postemergence (flood test), scale 0 to 10, 0 is no effect, 10 is complete control
[17] = Rate 250 g/ha, headed Pre-emergence (flood test species), scale 0 to 10 (0 no effect, 10 complete control)
[18] = Rate 500 g/ha, headed Pre-emergence (flood test species), scale 0 to 10 (0 no effect, 10 complete control)
[19] = Rate 500 g/ha, listed under Postemergence (flood test species), scale 0 to 10, 0 no effect, 10 complete control
[20] = Rate 1000 g/ha, Pre-emergence (as headed), scale 0 to 10
[21] = Rate 2000 g/ha, Pre-emergence (as headed), scale 0 to 10

Cc1nn(C)c(Cl)c1-n1c(=O)on(C(=O)N(c2ccccc2)C(C)C)c1=O [Compound 121]
Bedstraw plant response rating (bedstraw; [1]): 0
Plant response rating, Bedstraw (bedstraw; [2]): 0
Plant response rating, Bedstraw (bedstraw; [3]): 2
Bedstraw plant response rating (bedstraw; [4]): 5
Bedstraw plant response rating (bedstraw; [5]): 6
Blackgrass plant response rating (blackgrass; [6]): 0
Blackgrass plant response rating (blackgrass; [7]): 2
Blackgrass plant response rating (blackgrass; [1]): 0
Plant response rating, Blackgrass (blackgrass; [2]): 4
Plant response rating, Blackgrass (blackgrass; [3]): 7
Blackgrass plant response rating (blackgrass; [4]): 9
Blackgrass plant response rating (blackgrass; [8]): 0
Blackgrass plant response rating (blackgrass; [5]): 6
B. signalgrass plant response rating (surinam grass; [9]): 0
B. signalgrass plant response rating (surinam grass; [6]): 0
B. signalgrass plant response rating (surinam grass; [7]): 3
B. signalgrass plant response rating (surinam grass; [1]): 0
Plant response rating, B. signalgrass (surinam grass; [2]): 4
Plant response rating, B. signalgrass (surinam grass; [3]): 8
B. signalgrass plant response rating (surinam grass; [4]): 9
B. signalgrass plant response rating (surinam grass; Rate 500 g/ha, Postemergence, scale of 0 to 10 where 0 is no effect and 10 is complete control): 3
Cocklebur plant response rating (cocklebur; [6]): 2
Cocklebur plant response rating (cocklebur; [7]): 2
Cocklebur plant response rating (cocklebur; [1]): 0
Plant response rating, Cocklebur (cocklebur; [2]): 0
Cocklebur plant response rating (cocklebur; [4]): 0
Cocklebur plant response rating (cocklebur; [8]): 0
Cocklebur plant response rating (cocklebur; [5]): 5
Corn plant response rating (corn; [6]): 0
Corn plant response rating (corn; [7]): 0
Corn plant response rating (corn; [1]): 0
Plant response rating, Corn (corn; [2]): 0
Plant response rating, Corn (corn; [3]): 0
Corn plant response rating (corn; [4]): 0
Corn plant response rating (corn; [8]): 0
Corn plant response rating (corn; [5]): 0
Crabgrass plant response rating (crabgrass; [6]): 6
Crabgrass plant response rating (crabgrass; [7]): 9
Crabgrass plant response rating (crabgrass; [1]): 2
Plant response rating, Crabgrass (crabgrass; [2]): 7
Plant response rating, Crabgrass (crabgrass; [3]): 8
Crabgrass plant response rating (crabgrass; [4]): 9
Crabgrass plant response rating (crabgrass; [8]): 4
Crabgrass plant response rating (crabgrass; [5]): 9
Giant foxtail plant response rating (giant foxtail; [6]): 1
Giant foxtail plant response rating (giant foxtail; [7]): 7
Giant foxtail plant response rating (giant foxtail; [1]): 8
Plant response rating, Giant foxtail (giant foxtail; [2]): 8
Plant response rating, Giant foxtail (giant foxtail; [3]): 8
Giant foxtail plant response rating (giant foxtail; [4]): 10
Giant foxtail plant response rating (giant foxtail; [8]): 1
Giant foxtail plant response rating (giant foxtail; [5]): 8
Morningglory plant response rating (morningglory; [6]): 6
Morningglory plant response rating (morningglory; [7]): 6
Morningglory plant response rating (morningglory; [1]): 0
Plant response rating, Morningglory (morningglory; [2]): 0
Plant response rating, Morningglory (morningglory; [3]): 0
Morningglory plant response rating (morningglory; [4]): 0
Morningglory plant response rating (morningglory; [8]): 5
Morningglory plant response rating (morningglory; [5]): 9
Redroot pigweed plant response rating (pigweed; [6]): 2
Redroot pigweed plant response rating (pigweed; [1]): 4
Plant response rating, Redroot pigweed (pigweed; [2]): 7
Plant response rating, Redroot pigweed (pigweed; [3]): 8
Redroot pigweed plant response rating (pigweed; [4]): 8
Redroot pigweed plant response rating (pigweed; [8]): 2
Plant response rating, Redroot pigweed (pigweed; [10]): 3
Redroot pigweed plant response rating (pigweed; [5]): 5
Soybean plant response rating (soybean; [6]): 5
Soybean plant response rating (soybean; [1]): 0
Plant response rating, Soybean (soybean; [2]): 0
Plant response rating, Soybean (soybean; [3]): 0
Soybean plant response rating (soybean; [4]): 0
Soybean plant response rating (soybean; [8]): 5
Plant response rating, Soybean (soybean; [10]): 6
Soybean plant response rating (soybean; [5]): 6
Velvetleaf plant response rating (velvetleaf; [6]): 0
Velvetleaf plant response rating (velvetleaf; [1]): 0
Velvetleaf plant response rating (0 to 10 scale) (velvetleaf; [11]): 0
Plant response rating, Velvetleaf (velvetleaf; [12]): 0
Velvetleaf plant response rating (velvetleaf; [4]): 0
Velvetleaf plant response rating (velvetleaf; [8]): 0
Plant response rating, Velvetleaf (velvetleaf; [13]): 4
Velvetleaf plant response rating (velvetleaf; [5]): 4
Wheat plant response rating (wheat; [6]): 0
Wheat plant response rating (wheat; [1]): 0
Wheat plant response rating (0 to 10 scale) (wheat; [11]): 0
Plant response rating, Wheat (wheat; [12]): 0
Wheat plant response rating (wheat; [4]): 3
Wheat plant response rating (wheat; [8]): 0
Plant response rating, Wheat (wheat; [13]): 0
Wheat plant response rating (wheat; [5]): 0
Wild oats plant response rating (wild oat; [6]): 0
Wild oats plant response rating (wild oat; [1]): 0
Wild oats plant response rating (0 to 10 scale) (wild oat; [11]): 0
Plant response rating, Wild oats (wild oat; [12]): 5
Wild oats plant response rating (wild oat; [4]): 6
Wild oats plant response rating (wild oat; [8]): 0
Plant response rating, Wild oats (wild oat; [13]): 0
Wild oats plant response rating (wild oat; [5]): 0
Rice plant response rating (rice; [14]): 0
Rice plant response rating (rice; [15]): 0
Plant response rating, Rice (rice; [16]): 0
Rice plant response rating (rice; [17]): 0
Plant response rating, Rice (rice; [18]): 0
Rice plant response rating (rice; [19]): 0
Rice plant response rating (rice; [20]): 3
Rice plant response rating (rice; [21]): 5
S. Flatsedge plant response rating (smallflower flatsedge; [14]): 5
S. Flatsedge plant response rating (smallflower flatsedge; Pre-emergence, Rate 1000 g/ha, scale 0 to 10 (0 no effect, 10 complete control)): 9
S. Flatsedge plant response rating (smallflower flatsedge; [15]): 3
Plant response rating, S. Flatsedge (smallflower flatsedge; [16]): 5
S. Flatsedge plant response rating (smallflower flatsedge; [17]): 0
Plant response rating, S. Flatsedge (smallflower flatsedge; [18]): 3
S. Flatsedge plant response rating (smallflower flatsedge; [19]): 6
S. Flatsedge plant response rating (smallflower flatsedge; [21]): 9
Barnyardgrass plant response rating (bamyardgrass; [14]): 0
Barnyardgrass plant response rating (bamyardgrass; [9]): 0
Barnyardgrass plant response rating (bamyardgrass; [17]): 0
Plant response rating, Barnyardgrass (bamyardgrass; [18]): 8
Barnyardgrass plant response rating (bamyardgrass; [19]): 6
Barnyardgrass plant response rating (bamyardgrass; [20]): 9
Barnyardgrass plant response rating (bamyardgrass; Rate 2000 g/ha, Pre-emergence (as headed), scale 0 to 10, 0 no effect, 10 complete control): 9
Barnyardgrass plant response rating (bamyardgrass; flood test, listed under Postemergence, Rate 250 g/ha, scale 0 to 10, 0 no effect, 10 complete control): 0
